Values of other authors, collected in US8268549B2, “Method and assay for determining methylation of GAL3 promoter for early diagnosis of prostate cancer” (University of Maryland, Baltimore, priority 2005, dated 2012).

Test system: galectins

Compound	ligand quality for chimera galectins (chimera galectins)	relative binding affinity, times less effective than lactose (Lac) (galectins) [times]
CC(=O)N[C@@H]1[C@@H](O[C@@H]2O[C@H](CO)[C@H](O)[C@H](O)[C@H]2O)[C@@H](O)[C@@H](CO)O[C@@H]1O [T-disaccharide]	good ligand	–
O=C[C@H](O)[C@@H](O)[C@@H](O)[C@H](O)CO [D-galactose]	–	~200
